Calls of active or inactive are those of the source.
Legend:
[1] = biological target: T1, Thyroid hormone receptor-associated protein 3 (Homo sapiens, UniProt Q9Y2W1)
T1 sequence (Q9Y2W1 whole entry): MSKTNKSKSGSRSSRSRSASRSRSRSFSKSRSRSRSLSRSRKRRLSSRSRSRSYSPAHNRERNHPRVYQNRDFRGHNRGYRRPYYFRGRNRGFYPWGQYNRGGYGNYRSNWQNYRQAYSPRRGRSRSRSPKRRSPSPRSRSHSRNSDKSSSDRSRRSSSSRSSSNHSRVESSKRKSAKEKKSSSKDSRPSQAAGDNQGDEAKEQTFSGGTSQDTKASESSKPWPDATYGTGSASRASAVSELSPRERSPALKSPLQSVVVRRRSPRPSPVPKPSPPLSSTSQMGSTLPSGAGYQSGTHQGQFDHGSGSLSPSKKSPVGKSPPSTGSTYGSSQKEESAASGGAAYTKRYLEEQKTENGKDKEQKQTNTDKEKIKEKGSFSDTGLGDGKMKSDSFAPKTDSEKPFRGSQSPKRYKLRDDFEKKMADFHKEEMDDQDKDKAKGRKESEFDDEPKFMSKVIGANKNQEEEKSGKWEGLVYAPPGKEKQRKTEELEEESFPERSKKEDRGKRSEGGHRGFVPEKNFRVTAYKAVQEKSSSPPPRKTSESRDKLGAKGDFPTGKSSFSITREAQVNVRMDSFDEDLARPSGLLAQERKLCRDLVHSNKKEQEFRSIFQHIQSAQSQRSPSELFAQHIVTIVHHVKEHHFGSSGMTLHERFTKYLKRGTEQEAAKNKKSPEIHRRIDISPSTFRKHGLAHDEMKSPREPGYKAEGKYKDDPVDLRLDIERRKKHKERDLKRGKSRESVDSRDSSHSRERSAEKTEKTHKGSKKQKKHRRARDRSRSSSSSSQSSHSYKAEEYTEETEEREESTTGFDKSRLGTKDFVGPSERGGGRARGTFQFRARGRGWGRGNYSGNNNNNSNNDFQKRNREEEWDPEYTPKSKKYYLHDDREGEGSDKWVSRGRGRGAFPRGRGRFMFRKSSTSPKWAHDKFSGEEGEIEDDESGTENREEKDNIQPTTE

[2] = biological target: Protein-tyrosine kinase 2-beta (Homo sapiens, UniProt Q14289)
[3] = biological target: Protein kinase C delta type (Homo sapiens, UniProt Q05655)
[4] = biological target: Ribosomal protein S6 kinase beta-1 (Homo sapiens, UniProt P23443)
[5] = biological target: T2, Ephrin type-A receptor 1 (Homo sapiens, UniProt P21709)
T2 sequence (P21709 whole entry): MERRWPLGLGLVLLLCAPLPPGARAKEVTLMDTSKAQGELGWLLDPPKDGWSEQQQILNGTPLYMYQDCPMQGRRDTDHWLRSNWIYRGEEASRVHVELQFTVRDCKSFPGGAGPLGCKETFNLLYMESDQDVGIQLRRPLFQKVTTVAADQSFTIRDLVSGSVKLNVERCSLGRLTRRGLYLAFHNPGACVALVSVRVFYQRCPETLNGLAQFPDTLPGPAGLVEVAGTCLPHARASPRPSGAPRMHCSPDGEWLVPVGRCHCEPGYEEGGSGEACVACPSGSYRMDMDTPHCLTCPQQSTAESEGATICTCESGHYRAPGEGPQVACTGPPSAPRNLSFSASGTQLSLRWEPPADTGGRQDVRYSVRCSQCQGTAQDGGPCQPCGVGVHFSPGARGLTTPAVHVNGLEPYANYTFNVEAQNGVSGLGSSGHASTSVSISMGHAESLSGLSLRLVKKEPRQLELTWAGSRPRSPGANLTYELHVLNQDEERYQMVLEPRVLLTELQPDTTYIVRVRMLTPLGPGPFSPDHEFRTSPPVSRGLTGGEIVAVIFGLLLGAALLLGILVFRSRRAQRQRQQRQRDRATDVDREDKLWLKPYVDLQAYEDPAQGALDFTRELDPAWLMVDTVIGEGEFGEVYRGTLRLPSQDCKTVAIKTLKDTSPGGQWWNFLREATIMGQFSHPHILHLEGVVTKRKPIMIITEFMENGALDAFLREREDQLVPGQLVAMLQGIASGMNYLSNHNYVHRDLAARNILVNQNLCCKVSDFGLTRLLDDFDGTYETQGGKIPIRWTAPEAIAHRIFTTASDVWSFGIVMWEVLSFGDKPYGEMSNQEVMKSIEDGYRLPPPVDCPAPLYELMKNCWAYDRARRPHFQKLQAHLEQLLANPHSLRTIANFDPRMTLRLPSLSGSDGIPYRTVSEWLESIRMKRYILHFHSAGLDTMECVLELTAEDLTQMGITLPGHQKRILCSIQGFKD

[6] = biological target: Chromodomain-helicase-DNA-binding protein 4 (Homo sapiens, UniProt Q14839)
[7] = biological target: Midasin (Homo sapiens, UniProt Q9NU22)
[8] = biological target: Interleukin-1 receptor-associated kinase 1 (Homo sapiens, UniProt P51617)
[9] = biological target: Mitogen-activated protein kinase kinase kinase kinase 5 (Homo sapiens, UniProt Q9Y4K4)
Further: in the data inactive means no Kd found up to 30 µM.

Sequence of Protein-tyrosine kinase 2-beta (Q14289 whole entry): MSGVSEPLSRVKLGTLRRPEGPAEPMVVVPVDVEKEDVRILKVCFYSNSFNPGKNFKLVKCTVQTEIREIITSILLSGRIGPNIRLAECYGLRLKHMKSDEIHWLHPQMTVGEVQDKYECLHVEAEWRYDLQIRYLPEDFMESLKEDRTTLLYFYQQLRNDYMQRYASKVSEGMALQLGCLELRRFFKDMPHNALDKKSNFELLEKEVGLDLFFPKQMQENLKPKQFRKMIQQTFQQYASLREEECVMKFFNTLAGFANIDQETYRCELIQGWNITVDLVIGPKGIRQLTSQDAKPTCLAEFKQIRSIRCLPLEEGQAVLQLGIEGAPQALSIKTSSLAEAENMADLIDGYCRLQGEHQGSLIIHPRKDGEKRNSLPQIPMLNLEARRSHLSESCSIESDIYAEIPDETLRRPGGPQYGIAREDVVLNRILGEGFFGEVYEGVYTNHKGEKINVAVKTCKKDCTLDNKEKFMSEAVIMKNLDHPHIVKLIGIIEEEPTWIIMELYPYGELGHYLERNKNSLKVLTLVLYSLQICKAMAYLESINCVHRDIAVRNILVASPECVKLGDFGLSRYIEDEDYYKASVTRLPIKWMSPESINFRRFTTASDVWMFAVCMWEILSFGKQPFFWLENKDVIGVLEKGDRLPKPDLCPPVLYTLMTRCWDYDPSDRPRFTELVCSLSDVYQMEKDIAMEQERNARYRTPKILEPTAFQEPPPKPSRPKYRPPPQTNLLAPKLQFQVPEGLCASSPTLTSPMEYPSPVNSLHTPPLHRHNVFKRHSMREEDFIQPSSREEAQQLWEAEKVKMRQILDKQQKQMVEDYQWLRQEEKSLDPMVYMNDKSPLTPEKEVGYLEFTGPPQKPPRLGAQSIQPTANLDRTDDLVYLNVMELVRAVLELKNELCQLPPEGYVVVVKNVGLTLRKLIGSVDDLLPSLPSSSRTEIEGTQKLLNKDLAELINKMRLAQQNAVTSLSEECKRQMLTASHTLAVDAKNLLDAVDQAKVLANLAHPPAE
Sequence of Protein kinase C delta type (Q05655 whole entry): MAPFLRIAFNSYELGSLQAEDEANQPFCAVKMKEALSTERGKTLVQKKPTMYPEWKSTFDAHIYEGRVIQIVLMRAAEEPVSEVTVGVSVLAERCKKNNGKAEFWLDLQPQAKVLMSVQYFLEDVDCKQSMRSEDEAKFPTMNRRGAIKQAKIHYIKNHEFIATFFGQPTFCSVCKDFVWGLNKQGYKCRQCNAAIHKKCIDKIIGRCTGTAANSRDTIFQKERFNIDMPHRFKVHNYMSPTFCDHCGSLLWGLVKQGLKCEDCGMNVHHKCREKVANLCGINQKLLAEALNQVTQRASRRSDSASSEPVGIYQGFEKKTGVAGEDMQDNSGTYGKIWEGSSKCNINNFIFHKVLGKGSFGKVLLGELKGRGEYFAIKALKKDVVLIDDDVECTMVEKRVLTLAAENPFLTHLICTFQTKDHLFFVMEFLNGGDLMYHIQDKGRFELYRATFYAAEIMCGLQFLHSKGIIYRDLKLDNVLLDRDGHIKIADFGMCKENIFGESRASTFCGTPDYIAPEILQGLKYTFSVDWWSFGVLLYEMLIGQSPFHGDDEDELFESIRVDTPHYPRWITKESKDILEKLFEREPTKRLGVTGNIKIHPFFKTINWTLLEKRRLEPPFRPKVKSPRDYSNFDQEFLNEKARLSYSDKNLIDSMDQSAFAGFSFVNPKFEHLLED
Sequence of Chromodomain-helicase-DNA-binding protein 4 (Q14839 whole entry): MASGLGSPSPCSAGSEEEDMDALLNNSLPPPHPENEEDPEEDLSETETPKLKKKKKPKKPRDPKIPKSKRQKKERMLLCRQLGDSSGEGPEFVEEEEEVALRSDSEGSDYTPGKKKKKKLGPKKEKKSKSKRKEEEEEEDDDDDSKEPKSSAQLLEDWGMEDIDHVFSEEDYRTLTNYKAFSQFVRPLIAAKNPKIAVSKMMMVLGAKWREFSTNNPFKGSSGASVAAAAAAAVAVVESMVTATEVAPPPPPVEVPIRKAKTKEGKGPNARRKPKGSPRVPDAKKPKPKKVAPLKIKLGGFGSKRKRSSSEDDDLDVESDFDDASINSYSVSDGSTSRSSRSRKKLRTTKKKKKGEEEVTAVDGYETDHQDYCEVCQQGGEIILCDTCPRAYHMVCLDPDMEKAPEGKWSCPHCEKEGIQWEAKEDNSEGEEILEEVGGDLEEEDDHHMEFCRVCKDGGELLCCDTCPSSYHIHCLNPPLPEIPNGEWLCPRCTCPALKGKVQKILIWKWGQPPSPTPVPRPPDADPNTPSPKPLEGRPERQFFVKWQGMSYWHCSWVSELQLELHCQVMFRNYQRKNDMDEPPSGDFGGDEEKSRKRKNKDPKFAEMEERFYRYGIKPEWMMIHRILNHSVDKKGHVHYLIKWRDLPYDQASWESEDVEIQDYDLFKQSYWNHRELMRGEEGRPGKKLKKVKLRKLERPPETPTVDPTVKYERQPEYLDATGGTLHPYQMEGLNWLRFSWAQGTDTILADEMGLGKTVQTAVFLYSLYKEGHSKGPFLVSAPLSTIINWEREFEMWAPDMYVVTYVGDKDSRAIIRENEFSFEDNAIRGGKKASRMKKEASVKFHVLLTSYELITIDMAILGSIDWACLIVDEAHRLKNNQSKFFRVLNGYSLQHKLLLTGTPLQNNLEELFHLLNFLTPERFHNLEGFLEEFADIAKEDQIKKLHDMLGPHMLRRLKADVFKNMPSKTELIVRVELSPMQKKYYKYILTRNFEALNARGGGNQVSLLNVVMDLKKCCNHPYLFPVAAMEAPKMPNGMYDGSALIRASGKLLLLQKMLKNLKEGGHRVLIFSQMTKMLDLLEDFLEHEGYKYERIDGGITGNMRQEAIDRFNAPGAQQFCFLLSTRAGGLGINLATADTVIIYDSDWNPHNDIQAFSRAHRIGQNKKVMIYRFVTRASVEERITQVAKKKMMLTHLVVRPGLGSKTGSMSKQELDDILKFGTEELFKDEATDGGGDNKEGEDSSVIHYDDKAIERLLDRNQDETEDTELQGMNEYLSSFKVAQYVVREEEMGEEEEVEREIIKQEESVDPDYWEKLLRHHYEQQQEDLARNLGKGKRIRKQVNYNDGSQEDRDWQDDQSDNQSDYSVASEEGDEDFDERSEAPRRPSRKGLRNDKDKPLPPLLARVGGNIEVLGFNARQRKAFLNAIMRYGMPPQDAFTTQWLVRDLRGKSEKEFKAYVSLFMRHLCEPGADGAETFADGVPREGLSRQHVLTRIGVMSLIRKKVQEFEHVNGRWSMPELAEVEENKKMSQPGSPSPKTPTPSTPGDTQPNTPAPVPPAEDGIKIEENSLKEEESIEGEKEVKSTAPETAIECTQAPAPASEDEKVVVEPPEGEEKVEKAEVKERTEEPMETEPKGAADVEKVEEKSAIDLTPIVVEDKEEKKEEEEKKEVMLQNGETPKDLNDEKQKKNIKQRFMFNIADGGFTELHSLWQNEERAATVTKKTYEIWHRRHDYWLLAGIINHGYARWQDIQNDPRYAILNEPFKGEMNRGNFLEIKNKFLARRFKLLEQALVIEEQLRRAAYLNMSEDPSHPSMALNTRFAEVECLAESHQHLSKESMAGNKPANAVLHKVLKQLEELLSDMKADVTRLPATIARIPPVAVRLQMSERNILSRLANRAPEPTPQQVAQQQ
Sequence of Ribosomal protein S6 kinase beta-1 (P23443 whole entry): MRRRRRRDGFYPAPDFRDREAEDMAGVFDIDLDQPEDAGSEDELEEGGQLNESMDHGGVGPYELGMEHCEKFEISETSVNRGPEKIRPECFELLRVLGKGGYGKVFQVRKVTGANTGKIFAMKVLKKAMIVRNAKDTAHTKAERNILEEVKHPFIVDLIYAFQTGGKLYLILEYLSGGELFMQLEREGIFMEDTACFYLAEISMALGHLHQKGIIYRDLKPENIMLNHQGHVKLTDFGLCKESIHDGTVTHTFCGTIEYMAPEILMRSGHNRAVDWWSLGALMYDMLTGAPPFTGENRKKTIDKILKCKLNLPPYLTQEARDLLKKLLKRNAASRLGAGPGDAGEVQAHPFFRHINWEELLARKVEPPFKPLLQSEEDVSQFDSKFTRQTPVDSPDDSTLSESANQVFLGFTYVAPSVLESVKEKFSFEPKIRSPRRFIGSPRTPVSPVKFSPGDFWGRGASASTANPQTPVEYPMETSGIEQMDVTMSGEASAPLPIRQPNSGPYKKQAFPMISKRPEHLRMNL
Sequence of Interleukin-1 receptor-associated kinase 1 (P51617 whole entry): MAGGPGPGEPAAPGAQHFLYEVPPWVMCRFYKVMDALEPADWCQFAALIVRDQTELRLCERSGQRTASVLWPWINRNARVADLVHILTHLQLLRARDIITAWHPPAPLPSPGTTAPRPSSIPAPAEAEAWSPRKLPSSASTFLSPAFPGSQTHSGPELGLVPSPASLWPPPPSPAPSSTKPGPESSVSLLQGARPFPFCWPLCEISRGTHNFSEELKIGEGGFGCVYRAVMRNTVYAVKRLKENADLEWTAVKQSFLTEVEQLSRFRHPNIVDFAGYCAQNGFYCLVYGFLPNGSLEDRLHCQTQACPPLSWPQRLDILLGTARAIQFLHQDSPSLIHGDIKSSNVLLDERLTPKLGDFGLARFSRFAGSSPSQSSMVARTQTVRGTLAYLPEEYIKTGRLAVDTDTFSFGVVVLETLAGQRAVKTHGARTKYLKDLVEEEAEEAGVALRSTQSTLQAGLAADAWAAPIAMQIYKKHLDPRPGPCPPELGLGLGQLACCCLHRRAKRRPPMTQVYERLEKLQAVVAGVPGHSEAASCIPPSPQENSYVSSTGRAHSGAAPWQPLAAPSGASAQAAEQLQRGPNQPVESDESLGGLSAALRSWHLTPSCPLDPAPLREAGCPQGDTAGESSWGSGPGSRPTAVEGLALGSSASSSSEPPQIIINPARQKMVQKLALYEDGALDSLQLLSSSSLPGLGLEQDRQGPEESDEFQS

Compound | Kd [1] | Kd [2] | Kd [3] | Kd [4] | Kd [5] | Kd [6] | Kd [7] | Kd [8] | Kd [9]
CCNC(=O)C#Cc1ccc2c(c1)NC(=O)/C2=C(\Nc1ccc(CN(C)C)cc1)c1ccccc1 | > 30 µM (inactive) | > 30 µM (inactive) | > 30 µM (inactive) | > 30 µM (inactive) | > 30 µM (inactive) | > 30 µM (inactive) | 1.32 µM | > 30 µM (inactive) | 1.36 µM (active)
C=CC(=O)N1CCC[C@H](n2c(=O)n(-c3ccc(Oc4ccccc4)cc3)c3c(N)ncnc32)C1 | > 30 µM (inactive) | > 30 µM (inactive) | > 30 µM (inactive) | > 30 µM (inactive) | > 30 µM (inactive) | – | > 30 µM (inactive) | > 30 µM (inactive) | > 30 µM (inactive)
Cc1nc2cc(-c3nn(C(C)C)c4ncnc(N)c34)ccc2o1 | > 30 µM (inactive) | > 30 µM (inactive) | > 30 µM (inactive) | > 30 µM (inactive) | > 30 µM (inactive) | > 30 µM (inactive) | > 30 µM (inactive) | > 30 µM (inactive) | > 30 µM (inactive)
COCc1c(-c2ccc(NC(=O)Nc3cc(C(F)(F)F)ccc3F)c(F)c2)c2c(N)ncnn2c1CN1CCOCC1 | > 30 µM (inactive) | > 30 µM (inactive) | 5.08 µM (active) | > 30 µM (inactive) | > 30 µM (inactive) | > 30 µM (inactive) | > 30 µM (inactive) | > 30 µM (inactive) | > 30 µM (inactive)
COc1cc(Nc2ncc3c(n2)-c2ccc(Cl)cc2C(c2c(F)cccc2OC)=NC3)ccc1C(=O)O [ALISERTIB] | > 30 µM (inactive) | > 30 µM (inactive) | – | – | > 30 µM (inactive) | > 30 µM (inactive) | > 30 µM (inactive) | – | –
Cc1csc(-c2nnc(Nc3ccc(Oc4ncccc4-c4ccnc(N)n4)cc3)c3ccccc23)c1 [AMG-900] | 2.75 µM | > 30 µM (inactive) | 1.09 µM (active) | > 30 µM (inactive) | – | > 30 µM (inactive) | – | > 30 µM (inactive) | 1.71 µM (active)
O=C(Nc1c[nH]nc1-c1nc2cc(CN3CCOCC3)ccc2[nH]1)NC1CC1 [AT-9283] | > 30 µM (inactive) | > 30 µM (inactive) | > 30 µM (inactive) | 0.117 µM (active) | – | > 30 µM (inactive) | > 30 µM (inactive) | > 30 µM (inactive) | –
CNC(=O)c1ccccc1Sc1ccc2c(/C=C/c3ccccn3)n[nH]c2c1 [AXITINIB] | > 30 µM (inactive) | – | – | – | – | > 30 µM (inactive) | > 30 µM (inactive) | – | –
NC(=O)Nc1cc(-c2cccc(F)c2)sc1C(=O)N[C@H]1CCCNC1 [AZD-7762] | > 30 µM (inactive) | 0.608 µM (active) | 0.928 µM | > 30 µM (inactive) | – | > 30 µM (inactive) | > 30 µM (inactive) | > 30 µM (inactive) | 0.197 µM (active)
Cc1cc(C(=O)NOCCO)c(Nc2ccc(I)cc2F)n(C)c1=O [AZD-8330] | > 30 µM (inactive) | > 30 µM (inactive) | > 30 µM (inactive) | – | – | > 30 µM (inactive) | > 30 µM (inactive) | > 30 µM (inactive) | > 30 µM (inactive)
CC(C)(C)c1nc(-c2cccc(NS(=O)(=O)c3c(F)cccc3F)c2F)c(-c2ccnc(N)n2)s1 [DABRAFENIB] | > 30 µM (inactive) | > 30 µM (inactive) | > 30 µM (inactive) | – | 0.705 µM | > 30 µM (inactive) | > 30 µM (inactive) | – | > 30 µM (inactive)
C[C@@H](Oc1cc(-n2cnc3ccc(CN4CCN(C)CC4)cc32)sc1C(N)=O)c1ccccc1C(F)(F)F [GSK-461364] | > 30 µM (inactive) | – | – | – | – | > 30 µM (inactive) | > 30 µM (inactive) | – | –
O=C(Nc1cc(C(F)(F)F)cc(C(F)(F)F)c1)c1cc(Cl)ccc1O [IMD-0354] | > 30 µM (inactive) | > 30 µM (inactive) | – | – | > 30 µM (inactive) | > 30 µM (inactive) | > 30 µM (inactive) | > 30 µM (inactive) | 1.46 µM (active)
Cc1[nH]c(/C=C2\C(=O)Nc3ccccc32)c(C)c1CCC(=O)O [ORANTINIB] | > 30 µM (inactive) | – | – | – | > 30 µM (inactive) | > 30 µM (inactive) | > 30 µM (inactive) | – | –
NC(=O)c1c(OCc2c(F)cc(Br)cc2F)nsc1NC(=O)NCCCCN1CCCC1 [OSI-632] | > 30 µM (inactive) | – | – | – | > 30 µM (inactive) | > 30 µM (inactive) | > 30 µM (inactive) | – | –
CCOc1cc2ncc(C#N)c(Nc3ccc(F)c(Cl)c3)c2cc1NC(=O)/C=C/CN(C)C [PELITINIB] | > 30 µM (inactive) | > 30 µM (inactive) | – | > 30 µM (inactive) | > 30 µM (inactive) | > 30 µM (inactive) | > 30 µM (inactive) | > 30 µM (inactive) | 0.042 µM (active)
CCCCCCCCCCCCCCCCCCOP(=O)([O-])OC1CC[N+](C)(C)CC1 [PERIFOSINE] | > 30 µM (inactive) | > 30 µM (inactive) | > 30 µM (inactive) | – | > 30 µM (inactive) | > 30 µM (inactive) | > 30 µM (inactive) | > 30 µM (inactive) | > 30 µM (inactive)
Cc1nc(Nc2n[nH]c3c2CN(C(=O)N[C@H](CN(C)C)c2ccccc2)C3(C)C)c2sccc2n1 [PF-03758309] | > 30 µM (inactive) | 1.4 µM (active) | 0.974 µM (active) | – | > 30 µM (inactive) | > 30 µM (inactive) | > 30 µM (inactive) | > 30 µM (inactive) | > 30 µM (inactive)
CC(=O)NCC(=O)N1[C@@H]2CC[C@H]1c1ccc(Nc3ncc(C(F)(F)F)c(NC4CCC4)n3)cc12 [PF-03814735] | > 30 µM (inactive) | – | – | – | > 30 µM (inactive) | > 30 µM (inactive) | > 30 µM (inactive) | – | –
CNC(=O)c1cc(Oc2ccc(NC(=O)Nc3cc(C(C)(C)C)nn3-c3ccc4ncccc4c3)c(F)c2)ccn1 [REBASTINIB] | > 30 µM (inactive) | 9.24 µM (active) | > 30 µM (inactive) | > 30 µM (inactive) | – | > 30 µM (inactive) | > 30 µM (inactive) | – | –
N#CC[C@H](C1CCCC1)n1cc(-c2ncnc3[nH]ccc23)cn1 [RUXOLITINIB] | > 30 µM (inactive) | – | – | – | – | > 30 µM (inactive) | > 30 µM (inactive) | – | –
CN1CCN(CCOc2cc(OC3CCOCC3)c3c(Nc4c(Cl)ccc5c4OCO5)ncnc3c2)CC1 [SARACATINIB] | > 30 µM (inactive) | > 30 µM (inactive) | > 30 µM (inactive) | > 30 µM (inactive) | – | > 30 µM (inactive) | > 30 µM (inactive) | > 30 µM (inactive) | 27.1 µM
O=C1NC(=O)[C@@H](c2cn3c4c(cccc24)CCC3)[C@@H]1c1c[nH]c2ccccc12 [TIVANTINIB] | > 30 µM (inactive) | > 30 µM (inactive) | > 30 µM (inactive) | > 30 µM (inactive) | – | > 30 µM (inactive) | > 30 µM (inactive) | > 30 µM (inactive) | > 30 µM (inactive)

— ChEMBL document CHEMBL3991601, “The target landscape of clinical kinase drugs” (Science, 2017)
